Reference: paper PMC9101869, “5,2′-Dibromo-2,4′,5′-trihydroxydiphenylmethanone Inhibits LPS-Induced Vascular Inflammation by Targeting the Cav1 Protein” (Molecules, 2022)

Target: T1, Cav1 (Homo sapiens, UniProt Q03135)
T1 construct: commercial human recombinant Cav1 (Cloud-Clone Corp.); biotinylated for BLI
T1 sequence (Q03135 2-178): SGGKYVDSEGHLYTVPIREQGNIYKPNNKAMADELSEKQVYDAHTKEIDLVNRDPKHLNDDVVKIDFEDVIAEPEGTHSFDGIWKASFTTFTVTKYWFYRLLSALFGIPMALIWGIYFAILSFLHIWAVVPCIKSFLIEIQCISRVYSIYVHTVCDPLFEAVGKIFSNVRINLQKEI
Assay: intrinsic fluorescence quenching, double logarithmic fit
Format: binding
Conditions: 298 K; Cav1 5.0 × 10^−9 mol/L; excitation 280 nm; n fitted as free exponent; read-out: Kb(L.mol^-1) (converted)
From the text: intrinsic fluorescence quenching, double logarithmic fit on Cav1

Kd: 0.917 nM
Compound: O=C(c1cc(Br)ccc1O)c1cc(O)c(O)cc1Br [TDD, 5,2′-dibromo-2,4′,5′-trihydroxydiphenylmethanone]
